According to patent publication US20250380697A1, “ISOXAZOLINE DERIVATIVE COMPOUND AND INSECTICIDAL COMPOSITION COMPRISING SAME” (KYUNG NONG CORPORATION, priority 2022, published 2025):

What was measured:
[1] = tested on: Frankliniella occidentalis; test: Pesticidal activity against Frankliniella occidentalis, spray method; format: in vivo; conditions: 48 h, read-out: mortality rate, Frankliniella occidentalis
How it was run: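 Ten F. occidentalis adults per dish sprayed with compound at 100 ppm in water/acetone 50,000 mg/L/Triton X-100 100 mg/L, then given a soybean cotyledon. Held at 25±1 °C, 50-60% RH, 16:8 h light:dark; live adults counted 48 h after inoculation to give mortality.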

[2] = tested on: Thrips tabaci Lindeman; test: Pesticidal activity against Thrips tabaci Lindeman, spray method; format: in vivo; conditions: adults, counted 24 and 48 hours, time not given, read-out: mortality rate, Thrips tabaci Lindeman
Source text: A water-soaked filter paper (9.0 cm in diameter) was placed in an insect breeding dish (Lab Guide®) with a diameter of 9.0 cm and a height of 4.0 cm, and then parafilm (width 4.0 cm×height 4.0 cm) was placed thereon. Before being treated with a pesticide composition, 10 adult Thrips tabaci Lindeman were inoculated per petri dish using a No. 4 brush. In this case, Thrips tabaci Lindeman adults used were those collected in a place near the Andong National University (Korea) and bred for multiple generations. Then, the pesticide composition where the compound of Synthesis Example 2 was diluted (the solvent=distilled water+acetone 50,000 mg/L+Triton X-100 100 mg/L) was loaded into a 100 mL small sprayer, and sprayed 10-12 times at a distance of 30 cm and a height of 50 cm, and one cotyledons of soybean, which is a host plant, were added one at a time. Then, the Thrips tabaci Lindeman adults were stored under the conditions of 16 hours of light and 8 hours of darkness, 25±1° C., and relative humidity of 50-60%, and the number of live Thrips tabaci Lindeman adults was counted 24, and 48 hours after the inoculation. Thereafter, the larvae mortality rate was calculated in the same manner as in Test Example 1 above.

Compound `CON=CNC(=O)c1ccc(C2=NOC(c3cc(Cl)cc(Cl)c3)(C(F)(F)F)C2)cc1C` (stereo not drawn) [Comparative Example 1, fluxametamide] has a mortality at 1 ppm [1] of 7%, a mortality at 5 ppm [1] of 13% and a mortality at 10 ppm [1] of 50%. The mortality at 1 ppm [2] was 63%, the mortality at 3 ppm [2] was 83% and the mortality at 10 ppm [2] was 86%.
`Cc1cc(C2=NOC(c3cc(Cl)cc(C(F)(F)F)c3)(C(F)(F)F)C2)ccc1C(=O)NC(=O)C1CC1` (racemic) [Synthesis Example 2] showed a mortality at 1 ppm [1] of 100%, a mortality at 5 ppm [1] of 100% and a mortality at 10 ppm [1] of 100%. It also gave a mortality at 1 ppm [2] of 70%, a mortality at 3 ppm [2] of 90% and a mortality at 10 ppm [2] of 100%.
